Assay results: PMC10587126, “Molecular hybridization strategy for tuning bioactive peptide function” (Communications Biology, 2023)
No end group written: not given here.

Assays:
[1] = Resistance to proteolytic degradation in fetal bovine serum; type: in vitro ADME; details: 25% fetal bovine serum in water, 37 °C
Procedure: Stability assays were performed following the protocol described by Torres et al.[67]. Briefly, a peptide solution was added to GIBCO fetal bovine serum diluted to 25% in water and kept at 37 °C. The degradation kinetics were monitored by liquid chromatography and the percentage of peptide remaining in each case was calculated by integrating the peptide peak area. These experiments were performed as three independent replicates, and aliquots were taken at 0, 0.5, 1, 2, 4, and 6 h.

human erythrocytes = experiment: Hemolytic activity; type: cell-based; details: 0.1–100 μmol L^−1 in PBS, room temperature, 1 h, absorbance 405 nm
Procedure: Assays against freshly collected human erythrocytes were performed following protocols described by Pedron et al.[54]. Briefly, peptide aliquots at concentrations ranging from 0.1 to 100 μmol L^−1 were incubated with a suspension of erythrocytes at room temperature for 1 h. The samples were then centrifuged, and the absorbance of the supernatant was measured at 405 nm. […] The surfactant SDS and PBS buffer were used as positive[81],[82] and negative controls, respectively. Sodium heparin was used as an anticoagulant when collecting human blood. Three biological repeats were performed. All experiments were performed in accordance with the protocol CEUA/IB #I-1345/15 approved by the Instituto Butantan.

[2] = Mouse body weight in the skin abscess infection model; type: in vivo
Procedure: (§1) The anti-infective activity of the peptides VmCT1, temporin A, VT, and TV against A. baumannii ATCC 19606 was evaluated as described by Torres et al.[7],[83] Bacteria were grown in tryptic soy broth medium to an optical density of 0.5 at 600 nm. Cells were washed twice with sterile phosphate-buffered saline (pH 7.4, 13,000 rpm for 1 min) and resuspended to a final concentration of 1 × 10^7 CFU/20 μL. To generate the skin infection, female CD-1 mice (6-weeks-old) were first anesthetized with isoflurane and their backs were shaved. Using a needle, a superficial linear abrasion was made on the shaved area of the mice to injure just the stratum corneum and the upper layer of the epidermis. An aliquot of 20 μL containing 1 × 10^7 CFU of A. baumannii was then inoculated over the wound area with a pipette tip. The next day, the infected area was treated with the peptides (i.e., VmCT1, temporin A, VT, and TV), which were administered onto the abscess at their MIC. The animals were euthanized, and the scarified skin area removed 2- and 4-days post-infection. The excised area was homogenized using a bead beater for 20 min (25 Hz) and serially diluted for CFU quantification. Eight mice were used per group (n = 8). All experiments were performed in accordance with protocol 806763 approved by the IACUC at the University of Pennsylvania.

A. baumannii ATCC 19606 = experiment: Skin abscess infection mouse model, CFU quantification; type: in vivo, Acinetobacter baumannii (in female CD-1 mice); details: female CD-1 mice, 1 × 10^7 CFU, peptide onto the abscess at MIC
Procedure: as §1

[3] = LC peak area, time 0 = 100, 0.5 h, replicate 1
[4] = LC peak area, time 0 = 100, 0.5 h, replicate 2
[5] = LC peak area, time 0 = 100, 0.5 h, replicate 3
[6] = LC peak area, time 0 = 100, 1 h, replicate 1
[7] = LC peak area, time 0 = 100, 1 h, replicate 2
[8] = LC peak area, time 0 = 100, 1 h, replicate 3
[9] = LC peak area, time 0 = 100, 2 h, replicate 1
[10] = LC peak area, time 0 = 100, 2 h, replicate 2
[11] = LC peak area, time 0 = 100, 2 h, replicate 3
[12] = LC peak area, time 0 = 100, 4 h, replicate 1
[13] = LC peak area, time 0 = 100, 4 h, replicate 2
[14] = LC peak area, time 0 = 100, 4 h, replicate 3
[15] = LC peak area, time 0 = 100, 6 h, replicate 1
[16] = LC peak area, time 0 = 100, 6 h, replicate 2
[17] = LC peak area, time 0 = 100, 6 h, replicate 3
[18] = day 0 = 100, Day 1, replicate 1
[19] = day 0 = 100, Day 1, replicate 2
[20] = day 0 = 100, Day 1, replicate 3
[21] = day 0 = 100, Day 2, replicate 1
[22] = day 0 = 100, Day 2, replicate 2
[23] = day 0 = 100, Day 2, replicate 3
[24] = day 0 = 100, Day 3, replicate 1
[25] = day 0 = 100, Day 3, replicate 2
[26] = day 0 = 100, Day 3, replicate 3
[27] = day 0 = 100, Day 4, replicate 1
[28] = day 0 = 100, Day 4, replicate 2
[29] = day 0 = 100, Day 4, replicate 3

FLGSLWRKAGTVF-NH2 [VD]
Peptide remaining [1, 3]: 33.7
Peptide remaining [1, 4]: 43.8
Peptide remaining [1, 5]: 94.3
Peptide remaining [1, 6]: 66.3
Peptide remaining [1, 7]: 77.3
Peptide remaining [1, 8]: 49.4
Peptide remaining [1, 9]: 38.2
Peptide remaining [1, 10]: 88.5
Peptide remaining [1, 11]: 63.8
Peptide remaining [1, 12]: 66.4
Peptide remaining [1, 13]: 45.3
Peptide remaining [1, 14]: 44.7
Peptide remaining [1, 15]: 56.9
Peptide remaining [1, 16]: 59.8
Peptide remaining [1, 17]: 0.0
Hemolytic activity (concentration of peptide needed to kill 10% of red blood cells) (human erythrocytes): no hemolytic activity was detected

FLPLLWRVASGVF-NH2 [VT]
Peptide remaining after 30 min ([1]; LC peak area vs time 0, 30 min, three replicates): totally degraded
Peptide remaining [1, 3]: 0
Peptide remaining [1, 4]: 0
Peptide remaining [1, 5]: 0
Peptide remaining [1, 7]: 0
Peptide remaining [1, 8]: 0
Peptide remaining [1, 9]: 0
Peptide remaining [1, 10]: 0
Peptide remaining [1, 11]: 0
Peptide remaining [1, 12]: 0
Peptide remaining [1, 13]: 0
Peptide remaining [1, 14]: 0
Peptide remaining [1, 15]: 0
Peptide remaining [1, 16]: 0
Peptide remaining [1, 17]: 0
remaining at 1 h ([1]; fetal bovine serum, 25% in water, LC peak area, time 0 = 100, 1 h, replicate 1, read-out: Peptide remaining): 0%
Hemolytic activity (concentration of peptide needed to kill 10% of red blood cells) (human erythrocytes): 0.2 µmol/L
Mouse body weight, normalized to the weight at the beginning of the experiment [2, 18]: 95
Mouse body weight, normalized to the weight at the beginning of the experiment [2, 19]: 100
Mouse body weight, normalized to the weight at the beginning of the experiment [2, 20]: 100
Mouse body weight, normalized to the weight at the beginning of the experiment [2, 21]: 90
Mouse body weight, normalized to the weight at the beginning of the experiment [2, 22]: 105
Mouse body weight, normalized to the weight at the beginning of the experiment [2, 23]: 100
Mouse body weight, normalized to the weight at the beginning of the experiment [2, 24]: 90
Mouse body weight, normalized to the weight at the beginning of the experiment [2, 25]: 100
Mouse body weight, normalized to the weight at the beginning of the experiment [2, 26]: 95
Mouse body weight, normalized to the weight at the beginning of the experiment [2, 27]: 95
Mouse body weight, normalized to the weight at the beginning of the experiment [2, 28]: 100
Mouse body weight, normalized to the weight at the beginning of the experiment [2, 29]: 95

GLGALLNVIKSGL-NH2 [AV]
Peptide remaining [1, 3]: 31.1
Peptide remaining [1, 4]: 34.0
Peptide remaining [1, 5]: 0.0
Peptide remaining [1, 6]: 27.7
Peptide remaining [1, 7]: 32.8
Peptide remaining [1, 8]: 0.0
Peptide remaining [1, 9]: 39.7
Peptide remaining [1, 10]: 49.0
Peptide remaining [1, 11]: 0.0
Peptide remaining [1, 12]: 26.2
Peptide remaining [1, 13]: 41.8
Peptide remaining [1, 14]: 0.0
Peptide remaining [1, 15]: 0.0
Peptide remaining [1, 16]: 0.0
Peptide remaining [1, 17]: 0.0
Hemolytic activity (concentration of peptide needed to kill 10% of red blood cells) (human erythrocytes): 100 µmol/L

GLLKRIKTLL-NH2 [Anoplin, reference compound]
Peptide remaining [1, 3]: 22.7
Peptide remaining [1, 4]: 28.8
Peptide remaining [1, 5]: 20.2
Peptide remaining [1, 6]: 20.4
Peptide remaining [1, 7]: 17.5
Peptide remaining [1, 8]: 19.1
Peptide remaining [1, 9]: 14.2
Peptide remaining [1, 10]: 14.0
Peptide remaining [1, 11]: 0.0
Peptide remaining [1, 12]: 0.0
Peptide remaining [1, 13]: 0.0
Peptide remaining [1, 14]: 0.0
Peptide remaining [1, 15]: 0.0
Peptide remaining [1, 16]: 0.0
Peptide remaining [1, 17]: 0.0
remaining at 0.5 h ([1]; fetal bovine serum, 25% in water, LC peak area vs time 0, 30 min, three replicates, read-out: Peptide remaining after 30 min): < 50%
Hemolytic activity (concentration of peptide needed to kill 10% of red blood cells) (human erythrocytes): 50 µmol/L

SLGALINVLKSGG-NH2 [DV]
Peptide remaining [1, 3]: 13.4
Peptide remaining [1, 4]: 10.6
Peptide remaining [1, 5]: 0.0
Peptide remaining [1, 6]: 0.0
Peptide remaining [1, 7]: 0.0
Peptide remaining [1, 8]: 0.0
Peptide remaining [1, 9]: 0.0
Peptide remaining [1, 10]: 0.0
Peptide remaining [1, 11]: 0.0
Peptide remaining [1, 12]: 0.0
Peptide remaining [1, 13]: 0.0
Peptide remaining [1, 14]: 0.0
Peptide remaining [1, 15]: 0.0
Peptide remaining [1, 16]: 0.0
Peptide remaining [1, 17]: 0.0
Hemolytic activity (concentration of peptide needed to kill 10% of red blood cells) (human erythrocytes): 0.1 µmol/L

polymyxin B
A. baumannii load in the infected skin area (CFU quantification) (A. baumannii ATCC 19606; Day 2, mouse 1 of 8): 2000
A. baumannii load in the infected skin area (CFU quantification) (A. baumannii ATCC 19606; Day 2, mouse 2 of 8): 4000
A. baumannii load in the infected skin area (CFU quantification) (A. baumannii ATCC 19606; Day 2, mouse 3 of 8): 8000
A. baumannii load in the infected skin area (CFU quantification) (A. baumannii ATCC 19606; Day 2, mouse 4 of 8): 8000
A. baumannii load in the infected skin area (CFU quantification) (A. baumannii ATCC 19606; Day 2, mouse 5 of 8): 8000
A. baumannii load in the infected skin area (CFU quantification) (A. baumannii ATCC 19606; Day 2, mouse 6 of 8): 4000
A. baumannii load in the infected skin area (CFU quantification) (A. baumannii ATCC 19606; Day 2, mouse 7 of 8): 4000
A. baumannii load in the infected skin area (CFU quantification) (A. baumannii ATCC 19606; Day 2, mouse 8 of 8): 2000
A. baumannii load in the infected skin area (CFU quantification) (A. baumannii ATCC 19606; Day 4, mouse 1 of 8): 2000
A. baumannii load in the infected skin area (CFU quantification) (A. baumannii ATCC 19606; Day 4, mouse 2 of 8): 2000
A. baumannii load in the infected skin area (CFU quantification) (A. baumannii ATCC 19606; Day 4, mouse 3 of 8): 2000
A. baumannii load in the infected skin area (CFU quantification) (A. baumannii ATCC 19606; Day 4, mouse 4 of 8): 2000
A. baumannii load in the infected skin area (CFU quantification) (A. baumannii ATCC 19606; Day 4, mouse 5 of 8): 4000
A. baumannii load in the infected skin area (CFU quantification) (A. baumannii ATCC 19606; Day 4, mouse 6 of 8): 8000
A. baumannii load in the infected skin area (CFU quantification) (A. baumannii ATCC 19606; Day 4, mouse 7 of 8): 4000
A. baumannii load in the infected skin area (CFU quantification) (A. baumannii ATCC 19606; Day 4, mouse 8 of 8): 2000
Mouse body weight, normalized to the weight at the beginning of the experiment [2, 18]: 90
Mouse body weight, normalized to the weight at the beginning of the experiment [2, 19]: 95
Mouse body weight, normalized to the weight at the beginning of the experiment [2, 20]: 100
Mouse body weight, normalized to the weight at the beginning of the experiment [2, 21]: 90
Mouse body weight, normalized to the weight at the beginning of the experiment [2, 22]: 100
Mouse body weight, normalized to the weight at the beginning of the experiment [2, 23]: 100
Mouse body weight, normalized to the weight at the beginning of the experiment [2, 24]: 90
Mouse body weight, normalized to the weight at the beginning of the experiment [2, 25]: 100
Mouse body weight, normalized to the weight at the beginning of the experiment [2, 26]: 105
Mouse body weight, normalized to the weight at the beginning of the experiment [2, 27]: 95
Mouse body weight, normalized to the weight at the beginning of the experiment [2, 28]: 100
Mouse body weight, normalized to the weight at the beginning of the experiment [2, 29]: 110
